Data as given in patent publication US9006139B2, “Active compound combinations” (Bayer Intellectual Property GmbH, priority 2009, dated 2015).

Legend:
Assay type in all cases: in vivo
Leptosphaeria nodorum = Leptosphaeria nodorum test (wheat)/preventive; details: Parastagonospora nodorum, 192 h, Table K, read-out: Efficacy in % found; for pest or weed control at 62.5 ppm: 62.5 ppm a.i.; for pest or weed control at 500 ppm: 500 ppm a.i.; for pest or weed control at 125 ppm: 125 ppm a.i.
Protocol: (§1) Solvent: 49 parts by weight of n,n-dimethylacetamid
(§2) Emulsifier: 1 part by weight of alkylaryl polyglycol ether
(§3) To produce a suitable preparation of active compound, 1 part by weight of active compound or active compound combination is mixed with the stated amounts of solvent and emulsifier, and the concentrate is diluted with water to the desired concentration. To test for preventive activity, young plants are sprayed with the preparation of active compound or active compound combination at the stated rate of application. After the spray coating has been dried, the plants are sprayed with a spore suspension of Leptosphaeria nodorum. The plants remain for 48 hours in an incubation cabinet at approximately 20° C. and a relative atmospheric humidity of approximately 100%. The plants are placed in the greenhouse at a temperature of approximately 22° C. and a relative atmospheric humidity of approximately 80%. The test is evaluated 8 days after the inoculation. 0% means an efficacy which corresponds to that of the untreated control, while an efficacy of 100% means that no disease is observed.

Botrytis cinerea = test: Botrytis test (beans)/protective; details: Table F; for pest or weed control at 25 ppm / Efficacy in % found: test 1
Protocol: (§4) Solvent: 24.5 parts by weight of acetone
(§5) • 24.5 parts by weight of dimethylacetamide Emulsifier: 1 part by weight of alkylaryl polyglycol ether
To produce a suitable preparation of active compound, 1 part by weight of active compound is mixed with the stated amounts of solvent and emulsifier, and the concentrate is diluted with water to the desired concentration. To test for protective activity, young plants are sprayed with the preparation of active compound. After the spray coating has dried on, 2 small pieces of agar covered with growth of Botrytis cinerea are placed on each leaf. The inoculated plants are placed in a darkened chamber at 20° C. and a relative atmospheric humidity of 100%. 2 days after the inoculation, the size of the lesions on the leaves is evaluated. 0% means an efficacy which corresponds to that of the control, while an efficacy of 100% means that no disease is observed.

Alternaria solani = test: Alternaria test (tomatoes)/protective; details: Alternaria solani, 72 h, Table E, read-out: Efficacy in % found; for pest or weed control at 0.5 ppm / pest or weed control at 2 ppm: test 1; for pest or weed control at 0.5 ppm: 0.5 ppm a.i.; for pest or weed control at 2 ppm: 2 ppm a.i.
Protocol: as §4, §5
(§6) To produce a suitable preparation of active compound, 1 part by weight of active compound is mixed with the stated amounts of solvent and emulsifier, and the concentrate is diluted with water to the desired concentration. To test for protective activity, young plants are sprayed with the preparation of active compound at the stated rate of application. After the spray coating has dried on, the plants are inoculated with an aqueous spore suspension of Alternaria solani. The plants are then placed in an incubation cabinet at approximately 20° C. and a relative atmospheric humidity of 100%. The test is evaluated 3 days after the inoculation. 0% means an efficacy which corresponds to that of the control while an efficacy of 100% means that no disease is observed.

Phytophthora infestans = test: whole plant or invertebrate; details: Phytophthora infestans, 72 h; for pest or weed control at 1 ppm: read-out: Efficacy in % found, Table A, test 1, 1 ppm a.i.
Plasmopara viticola = test: Plasmopara test (grapevines)/protective; details: Table B
Protocol: as §4, §5
as §6, with “Plasmopara viticola and” for “Alternaria solani. The plants are”, “remain for 1 day” for “placed”, “The plant is subsequently placed for 4 days in a greenhouse at approximately 21° C. and a relative atmospheric humidity of approximately 90%. The plants are then misted and placed for 1 day in an incubation cabinet. The” for “The”, “6” for “3”, “control,” for “control”

Venturia inaequalis = test: Venturia test (apples)/protective; details: Table D
Protocol: as §4, §5
as §6, with “conidia” for “spore”, “the causal agent of apple scab (Venturia inaequalis) and” for “Alternaria solani. The plants are”, “remain for 1 day” for “placed”, “The plants are then placed in a greenhouse at approximately 21° C. and a relative atmospheric humidity of approximately 90%. The” for “The”, “10” for “3”, “control,” for “control”

Pyrenophora teres = test: Pyrenophora teres-test (barley)/preventive
Protocol: as §1, §2
as §3, with “Pyrenophora teres.” for “Leptosphaeria nodorum.”, “20°” for “22°”

Sphaerotheca fuliginea = test: Sphaerotheca test (cucumbers)/protective; details: Podosphaera fuliginea, 168 h, Table C, read-out: Efficacy in % found
Protocol: as §4, §5
To produce a suitable preparation of active compound, 1 part by weight of active compound is mixed with the stated amounts of solvent and emulsifier, and the concentrate is diluted with water to the desired concentration. To test for protect activity, young plants are sprayed with the preparation of active compound at the stated rate of application. After the spray coating has dried on, the plants are inoculated with an aqueous spore suspension of Sphaerotheca fuliginea. The plants are then placed in a greenhouse at approximately 23° C. and a relative atmospheric humidity of approximately 70%. The test is evaluated 7 days after the inoculation. 0% means an efficacy which corresponds to that of the control, while an efficacy of 100% means that no disease is observed.

Septoria tritici = test: Septoria tritici-test (wheat)/preventive; details: Table H; 62.5 ppm a.i.
Protocol: as §1, §2
as §3, with “suspension of Septoria tritici. The plants” for “suspension of Leptosphaeria nodorum. The plants”, “of approximately 100% and afterwards for 60 hours at approximately 15° C. in a translucent incubation cabinet at a relative atmospheric humidity of approximately 100%. The” for “of approximately 100%. The”, “of approximately 15° C. and” for “of approximately 22° C. and”, “is evaluated 21 days after” for “is evaluated 8 days after”

[1] = test system: Blumeria graminis fsp. tritici; test: Blumeria test (wheat)/preventive; details: Table G; 62.5 ppm a.i.
Protocol: as §1, §2
To produce a suitable preparation of active compound, 1 part by weight of active compound or active compound combination is mixed with the stated amounts of solvent and emulsifier, and the concentrate is diluted with water to the desired concentration. To test for preventive activity, young plants are sprayed with the preparation of active compound or active compound combination at the stated rate of application. After the spray coating has been dried, the plants are dusted with spores of Blumeria graminis fsp. tritici. The plants are placed in the greenhouse at a temperature of approximately 18° C. and a relative atmospheric humidity of approximately 80% to promote the development of mildew pustules. The test is evaluated 7 days after the inoculation. 0% means an efficacy which corresponds to that of the untreated control, while an efficacy of 100% means that no disease is observed.

[2] = Botrytis cinerea, 48 h, 25 ppm a.i., read-out: Efficacy in % found

## CO/N=C(/C1=NOCCO1)c1ccccc1Oc1ncnc(Oc2ccccc2Cl)c1F [(3.8), fluoxastrobin]
Leptosphaeria nodorum
  pest or weed control at 62.5 ppm: 63%
Botrytis cinerea; [2]
  pest or weed control at 25 ppm: 8%
Alternaria solani
  pest or weed control at 0.5 ppm: 40%
Phytophthora infestans
  pest or weed control at 1 ppm: 30%

## Cc1ccc(-c2c(Cl)nc(C#N)n2S(=O)(=O)N(C)C)cc1 [(3.3), cyazofamid]
Plasmopara viticola; 1 ppm a.i.
  Efficacy in % found: 0%

## CN(C)C(=S)SSC(=S)N(C)C [(5.25), thiram]
Leptosphaeria nodorum
  pest or weed control at 500 ppm: 33%

## O=C(Nc1ccccc1-c1ccc(Cl)cc1)c1cccnc1Cl [(2.3), boscalid]
Venturia inaequalis; test 1, 5 ppm a.i.
  Efficacy in % found: 0%
Botrytis cinerea; [2]
  pest or weed control at 25 ppm: 50%
Pyrenophora teres; Table I1, 62.5 ppm a.i.
  Efficacy in % found: 50%

## CON=C(C(=O)OC)c1ccccc1CON=C(C)c1cccc(C(F)(F)F)c1 [(3.17), trifloxystrobin]
Venturia inaequalis; test 1, 0.5 ppm a.i.
  Efficacy in % found: 8%
Botrytis cinerea; [2]
  pest or weed control at 25 ppm: 40%
Alternaria solani
  pest or weed control at 0.5 ppm: 30%

## C[C@@]1(c2ccc(Oc3ccccc3)cc2)OC(=O)N(Nc2ccccc2)C1=O (racemic) [(3.6), famoxadone]
Leptosphaeria nodorum
  pest or weed control at 500 ppm: 67%
Phytophthora infestans; read-out: Efficacy in % found, Table A, test 7, 2.5 ppm a.i.
  pest or weed control at 2.5 ppm: 31%

## CO/N=C(/C(=O)OC)c1ccccc1COc1ccccc1C [(3.9), kresoxim-methyl]
Botrytis cinerea; Botrytis cinerea, 48 h, test 3, 2.5 ppm a.i., read-out: Efficacy in % found
  pest or weed control at 2.5 ppm: 75%
Sphaerotheca fuliginea; test 4, 5 ppm a.i.
  pest or weed control at 5 ppm: 52%
Pyrenophora teres; Table I2, 62.5 ppm a.i.
  Efficacy in % found: 67%
Alternaria solani; test 2, 2.5 ppm a.i.
  pest or weed control at 2.5 ppm: 50%

## CCC(C)(NC(=O)c1cc(Cl)c(C)c(Cl)c1)C(=O)CCl (centres unmarked) [(4.9), zoxamide]
Plasmopara viticola; 2 ppm a.i.
  Efficacy in % found: 6%
Phytophthora infestans
  pest or weed control at 1 ppm: 58%

## C#CCOc1ccc(CCNC(=O)C(OCC#C)c2ccc(Cl)cc2)cc1OC (centres unmarked) [(9.5), mandipropamid]
Plasmopara viticola; 1 ppm a.i.
  Efficacy in % found: 57%

## COC(=O)N(OC)c1ccccc1COc1ccn(-c2ccc(Cl)cc2)n1 [(3.13), pyraclostrobin]
Leptosphaeria nodorum
  pest or weed control at 62.5 ppm: 88%
Venturia inaequalis; test 1, 0.5 ppm a.i.
  Efficacy in % found: 38%
Botrytis cinerea; [2]
  pest or weed control at 25 ppm: 63%
Alternaria solani
  pest or weed control at 0.5 ppm: 50%
Phytophthora infestans
  pest or weed control at 1 ppm: 58%

## Cn1cc(C(=O)Nc2ccccc2C2CC2C2CC2)c(C(F)F)n1 (centres unmarked) [(2.21), sedaxane]
Venturia inaequalis; test 1, 1 ppm a.i.
  Efficacy in % found: 24%
Botrytis cinerea; 25 ppm a.i.
  Efficacy in % found: 30%
Pyrenophora teres; Table I1, 125 ppm a.i.
  Efficacy in % found: 50%

## Cc1cc(C2CC2)nc(Nc2ccccc2)n1 [(7.3), cyprodinyl]
Botrytis cinerea; Botrytis cinerea, 48 h, test 2, 10 ppm a.i., read-out: Efficacy in % found
  pest or weed control at 10 ppm: 0%
Pyrenophora teres; Table I1, 125 ppm a.i.
  Efficacy in % found: 67%

## OC(Cc1ccccc1Cl)(Cn1nc[nH]c1=S)C1(Cl)CC1 (centres unmarked) [(1.41), prothioconazole]
Leptosphaeria nodorum
  pest or weed control at 125 ppm: 88%
Botrytis cinerea; [2]
  pest or weed control at 25 ppm: 49%
Sphaerotheca fuliginea; test 1, 0.5 ppm a.i.
  pest or weed control at 0.5 ppm: 37%
Alternaria solani
  pest or weed control at 2 ppm: 30%

## CC(C)(C)C(O)(CCc1ccc(Cl)cc1)Cn1cncn1 (centres unmarked) [(1.47), tebuconazole]
Leptosphaeria nodorum
  pest or weed control at 125 ppm: 88%
Botrytis cinerea; [2]
  pest or weed control at 25 ppm: 4%
Sphaerotheca fuliginea; test 1, 2 ppm a.i.
  pest or weed control at 2 ppm: 50%
Alternaria solani
  pest or weed control at 2 ppm: 35%

## O=[N+]([O-])c1cc(C(F)(F)F)c(Cl)c([N+](=O)[O-])c1Nc1ncc(C(F)(F)F)cc1Cl [(14.2), fluazinam]
Leptosphaeria nodorum
  pest or weed control at 500 ppm: 89%

## O=C(NCCc1ncc(C(F)(F)F)cc1Cl)c1ccccc1C(F)(F)F [(2.6), fluopyram]
Venturia inaequalis; test 1, 1 ppm a.i.
  Efficacy in % found: 0%
Septoria tritici
  Efficacy in % found: 90%

## CC(C)C1C2CCC1c1c(NC(=O)c3cn(C)nc3C(F)F)cccc12 (centres unmarked) [(2.10), isopyrazam]
Venturia inaequalis; test 1, 1 ppm a.i.
  Efficacy in % found: 28%
Septoria tritici
  Efficacy in % found: 80%

## Cc1nn(C)c(F)c1C(=O)Nc1ccccc1C(C)CC(C)C (centres unmarked) [(2.19), penflufen]
Venturia inaequalis; test 1, 1 ppm a.i.
  Efficacy in % found: 0%
Botrytis cinerea; 50 ppm a.i.
  Efficacy in % found: 65%
Septoria tritici
  Efficacy in % found: 50%

## Cn1cc(C(=O)Nc2ccc(F)cc2-c2ccc(Cl)c(Cl)c2)c(C(F)F)n1 [(2.2), bixafen]
Venturia inaequalis; test 2, 0.5 ppm a.i.
  Efficacy in % found: 0%
Septoria tritici
  Efficacy in % found: 50%

## CCCC1COC(Cn2cncn2)(c2ccc(Cl)cc2Cl)O1 (centres unmarked) [(1.40), propiconazole]
[1]
  Efficacy in % found: 38%
